Results as given in US4962109A, “Insecticidally and acaricidally active pyrimidine esters and intermediates therefor” (Imperial Chemical Industries PLC, priority 1985, dated 1990).

What was measured:
Type in all cases: in vivo
[1] = tested on: Diabrotica balteata (rootworm larvae); test: Residual test on rootworm larvae (DB), Filter paper/maize seed, mortality; details: 48 h, 500 ppm, residual, 2 days, read-out: DB grading of mortality
Summary of the method: (§1)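 Graded read-out: A 80-100%, B 50-79%, C below 50% mortality or knockdown, assessed usually 1-3 days post-treatment. Liquid preparations at 500, 250 or 100 ppm by weight, from acetone solution diluted in water with 0.01% wetting agent, applied to pests and/or their host plant or food medium.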

[2] = tested on: Tetranychus urticae (spider mites - adult); test: Contact test on spider mites - adult (TUa), French bean leaf, mortality; details: 72 h, 500 ppm, contact, 3 days, read-out: TUa grading of mortality
Summary of the method: as §1

[3] = tested on: Blattella germanica (cockroach nymphs); test: Contact test on cockroach nymphs (BG/C), Plastic pot, mortality; details: 48 h, 500 ppm, contact, 2 days, read-out: BG/C grading of mortality
Summary of the method: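 Cockroach nymphs and/or their medium were treated with aqueous preparations at 500, 250 or 100 ppm (acetone solution diluted in water with 0.01% Lissapol NX wetting agent). Mortality or knockdown was assessed typically 1–3 days later and graded A (80–100%), B (50–79%) or C (<50%).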

[4] = tested on: Spodoptera exigua (lesser army worm - larvae); test: Residual test on lesser army worm larvae (SP), Cotton leaf, mortality; details: 48 h, 500 ppm, residual, 2 days, read-out: SP grading of mortality
Summary of the method: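 Product dissolved in acetone and diluted in water with 0.01% wetting agent to 500, 250 or 100 ppm; larvae and/or cotton leaf host treated. Mortality or knockdown scored one to three days later and graded A (80-100%), B (50-79%) or C (<50%).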

Myzus persicae (aphids) = test: Contact test on aphids (MP), Chinese Cabbage leaf, mortality; details: 72 h, 500 ppm, contact, 3 days, read-out: MP grading of mortality
Summary of the method: as §1

[5] = tested on: Heliothis virescens (tobacco budworm - larvae); test: Residual test on tobacco budworm larvae (HV), Cotton leaf, mortality; details: 48 h, read-out: HV grading of mortality
Summary of the method: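 Product in acetone diluted with water containing 0.01% Lissapol NX, at 500, 250 or 100 ppm; pests and/or host medium (here cotton leaf) treated. Mortality scored one to three days later, graded A (80-100%), B (50-79%), C (<50%).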

[6] = tested on: Musca domestica (houseflies - adults); test: Contact test on houseflies - adults (MD), Cotton wool/sugar, mortality; details: 72 h, 500 ppm, contact, 3 days, read-out: MD grading of mortality
Summary of the method: as §1

[7] = tested on: Musca domestica (houseflies - adults); test: Knockdown test on houseflies - adults (MD/KD), Cotton wool/sugar; details: 500 ppm, 4 hours, read-out: MD/KD grading of knockdown
Summary of the method: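 Adult houseflies exposed to the compound at 500, 250 or 100 ppm in acetone/water with 0.01% wetting agent, on a cotton wool/sugar medium. Knockdown and mortality assessed, graded A (80-100%), B (50-79%) or C (<50%).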

[8] = tested on: Nephotettix cincticeps (green leaf hopper - nymphs); test: Contact test on green leaf hopper nymphs (NC), Rice plant, mortality; details: 48 h, 500 ppm, contact, 2 days, read-out: NC grading of mortality
Summary of the method: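 Product dissolved in acetone, diluted in water with 0.01% wetting agent to 500, 250 or 100 ppm; nymphs and/or host rice plants treated. Mortality or knockdown assessed 1–3 days later, graded A (80-100%), B (50-79%), C (<50%).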

[9] = tested on: Tetranychus urticae (spider mites - ova); test: Contact test on spider mites - ova (TUe), French bean leaf, mortality; details: 144 h, 500 ppm, contact, 6 days, read-out: TUe grading of mortality
Summary of the method: as §1

SMILES: COCc1c(F)c(F)c(COC(=O)C(c2cnc(N(C)C)nc2)C(C)(C)C)c(F)c1F (racemic) [Compound 199]
- mortality at 500 ppm [1]: 50 to 79%
- mortality at 500 ppm [2]: 80 to 100%
- mortality at 500 ppm [3]: 80 to 100%
- mortality at 500 ppm [4]: 80 to 100%
- mortality at 500 ppm (Myzus persicae (aphids)): 80 to 100%
- mortality at 500 ppm [5]: 80 to 100%
- mortality at 500 ppm [6]: 80 to 100%
- pest or weed control at 500 ppm [7]: 80 to 100%
- mortality at 500 ppm [8]: 80 to 100%
- mortality at 500 ppm [9]: 80 to 100%

SMILES: COCc1c(F)c(F)c(COC(=O)C(c2cnc(C3CC3)nc2)C(C)(C)C)c(F)c1F (racemic) [Compound 135, 2,3,5,6-tetrafluoro-4-(methoxymethyl)benzyl (RS)-2-(2-cyclopropylpyrimidin-5-yl)-3,3-dimethylbutanoate]
- mortality at 500 ppm [1]: 80 to 100%
- mortality at 500 ppm [2]: 80 to 100%
- mortality at 500 ppm [3]: < 50%
- mortality at 500 ppm [4]: 80 to 100%
- mortality at 500 ppm (Myzus persicae (aphids)): 80 to 100%
- mortality at 500 ppm [5]: < 50%
- mortality at 500 ppm [6]: 80 to 100%
- pest or weed control at 500 ppm [7]: 80 to 100%
- mortality at 500 ppm [8]: 80 to 100%
- mortality at 500 ppm [9]: 80 to 100%

SMILES: CC(C)(C)c1ncc(C(C(=O)OC(C#N)c2cccc(Oc3ccccc3)c2)C(C)(C)C)cn1 (racemic) [Compound 2, (RS)-1-cyano-1-(3-phenoxphenyl)methyl (RS)-2-[2-(1,1-dimethylethyl)pyrimidin-5-yl]-3,3-dimethylbutanoate]
- mortality at 500 ppm [1]: 80 to 100%
- mortality at 500 ppm [2]: 80 to 100%
- mortality at 500 ppm [3]: < 50%
- mortality at 500 ppm [4]: 80 to 100%
- mortality at 500 ppm (Myzus persicae (aphids)): 80 to 100%
- mortality at 500 ppm [5]: 80 to 100%
- mortality at 500 ppm [6]: 80 to 100%
- pest or weed control at 500 ppm [7]: < 50%
- mortality at 500 ppm [8]: 80 to 100%
- mortality at 500 ppm [9]: < 50%

SMILES: CC(C)(C)c1ncc(C(C(=O)OCc2c(F)c(F)c(F)c(F)c2F)C(C)(C)C)cn1 (racemic) [Compound 30, 2,3,4,5,6-pentafluorobenzyl (RS)-2-[2-(1,1-dimethylethyl)pyrimidin-5-yl]-3,3-dimethylbutanoate]
- mortality at 500 ppm [1]: 80 to 100%
- mortality at 500 ppm [2]: 80 to 100%
- mortality at 500 ppm [3]: < 50%
- mortality at 500 ppm [4]: 80 to 100%
- mortality at 500 ppm (Myzus persicae (aphids)): 80 to 100%
- mortality at 500 ppm [5]: 80 to 100%
- mortality at 500 ppm [6]: 80 to 100%
- pest or weed control at 500 ppm [7]: 80 to 100%
- mortality at 500 ppm [8]: 80 to 100%
- mortality at 500 ppm [9]: < 50%

SMILES: CC(C)(C)c1ncc(C(C(=O)OCc2ccc(F)c(Cc3ccccc3)c2)C(C)(C)C)cn1 (racemic) [Compound 18, 3-benzyl-4-fluorobenzyl (RS)-2-[2-(1,1-dimethylethyl)pyrimidin-5-yl]-3,3-dimethylbutanoate]
- mortality at 500 ppm [1]: 80 to 100%
- mortality at 500 ppm [2]: 80 to 100%
- mortality at 500 ppm [3]: < 50%
- mortality at 500 ppm [4]: 80 to 100%
- mortality at 500 ppm (Myzus persicae (aphids)): 80 to 100%
- mortality at 500 ppm [5]: 80 to 100%
- mortality at 500 ppm [6]: < 50%
- pest or weed control at 500 ppm [7]: 80 to 100%
- mortality at 500 ppm [8]: 80 to 100%
- mortality at 500 ppm [9]: < 50%

SMILES: COc1c(F)c(COc2ccccc2)c(F)c(F)c1COC(=O)C(c1cnc(C(C)(C)C)nc1)C(C)(C)C (racemic) [Compound 193, 2,3,5-trifluoro-6-methoxy-4-(phenoxymethyl)benzyl (RS)-2-[2-(1,1-dimethylethyl)pyrimidin-5-yl]-3,3-dimethylbutanoate]
- mortality at 500 ppm [1]: < 50%
- mortality at 500 ppm [2]: 80 to 100%
- mortality at 500 ppm [3]: < 50%
- mortality at 500 ppm [4]: 80 to 100%
- mortality at 500 ppm (Myzus persicae (aphids)): 80 to 100%
- mortality at 500 ppm [5]: < 50%
- mortality at 500 ppm [6]: < 50%
- pest or weed control at 500 ppm [7]: < 50%
- mortality at 500 ppm [8]: 50 to 79%
- mortality at 500 ppm [9]: < 50%

SMILES: CC(C)(C)c1ncc(C(C(=O)OCc2cccc(Oc3ccccc3)n2)C(C)(C)C)cn1 (racemic) [Compound 9, (6-phenoxypyrid-2-yl)methyl (RS)-2-[2-(1,1-dimethylethyl)pyrimidin-5-yl]-3,3-dimethylbutanoate]
- mortality at 500 ppm [1]: 50 to 79%
- mortality at 500 ppm [2]: 80 to 100%
- mortality at 500 ppm [3]: 50 to 79%
- mortality at 500 ppm [4]: 80 to 100%
- mortality at 500 ppm (Myzus persicae (aphids)): 80 to 100%
- mortality at 500 ppm [5]: 80 to 100%
- mortality at 500 ppm [6]: 80 to 100%
- pest or weed control at 500 ppm [7]: 80 to 100%
- mortality at 500 ppm [8]: 80 to 100%
- mortality at 500 ppm [9]: 80 to 100%

SMILES: CCN(CC)Cc1c(F)c(F)c(COC(=O)C(c2cnc(C(C)(C)C)nc2)C(C)(C)C)c(F)c1F (racemic) [Compound 176]
- mortality at 500 ppm [1]: < 50%
- mortality at 500 ppm [2]: 80 to 100%
- mortality at 500 ppm [3]: < 50%
- mortality at 500 ppm [4]: 80 to 100%
- mortality at 500 ppm (Myzus persicae (aphids)): 80 to 100%
- mortality at 500 ppm [5]: 80 to 100%
- mortality at 500 ppm [6]: 80 to 100%
- pest or weed control at 500 ppm [7]: 80 to 100%
- mortality at 500 ppm [8]: 80 to 100%
- mortality at 500 ppm [9]: < 50%

SMILES: CC(C)(C)SCc1c(F)c(F)c(COC(=O)C(c2cnc(C(C)(C)C)nc2)C(C)(C)C)c(F)c1F (racemic) [Compound 175, 4-[(1,1-dimethylethyl)thio]methyl-2,3,5,6-tetrafluorobenzyl (RS)-2-[2-(1,1-dimethylethyl)pyrimidin-5-yl]-3,3dimethylbutanoate]
- mortality at 500 ppm [1]: < 50%
- mortality at 500 ppm [2]: 80 to 100%
- mortality at 500 ppm [3]: < 50%
- mortality at 500 ppm [4]: < 50%
- mortality at 500 ppm (Myzus persicae (aphids)): < 50%
- mortality at 500 ppm [5]: < 50%
- mortality at 500 ppm [6]: < 50%
- pest or weed control at 500 ppm [7]: < 50%
- mortality at 500 ppm [8]: < 50%
- mortality at 500 ppm [9]: < 50%

SMILES: CC(C)=NOCc1c(F)c(F)c(COC(=O)C(c2cnc(C(C)(C)C)nc2)C(C)(C)C)c(F)c1F (racemic) [Compound 178, 4-(Prop-2-ylideneaminoxymethyl)-2,3,5,6-tetrafluorobenzyl (RS)-2-[2-(1,1-dimethylethyl)pyrimidin-5-yl]-3,3dimethylbutanoate]
- mortality at 500 ppm [1]: < 50%
- mortality at 500 ppm [2]: 80 to 100%
- mortality at 500 ppm [3]: < 50%
- mortality at 500 ppm [4]: < 50%
- mortality at 500 ppm (Myzus persicae (aphids)): 80 to 100%
- mortality at 500 ppm [5]: < 50%
- mortality at 500 ppm [6]: < 50%
- pest or weed control at 500 ppm [7]: < 50%
- mortality at 500 ppm [8]: 80 to 100%
- mortality at 500 ppm [9]: < 50%

SMILES: CC(C)c1ncc([C@H](C(=O)O[C@H](C)c2cccc(Oc3ccccc3)n2)C(C)(C)C)cn1 (racemic) [Compound 74, (RS)-1-(6-phenoxypyridin-2-yl)ethyl (RS)-2-[2-(1-methylethyl)pyrimidin-5-yl]-3,3-dimethylbutanoate]
- mortality at 500 ppm [1]: < 50%
- mortality at 500 ppm [2]: 80 to 100%
- mortality at 500 ppm [3]: < 50%
- mortality at 500 ppm [4]: 80 to 100%
- mortality at 500 ppm (Myzus persicae (aphids)): 50 to 79%
- mortality at 500 ppm [5]: 80 to 100%
- mortality at 500 ppm [6]: 50 to 79%
- pest or weed control at 500 ppm [7]: < 50%
- mortality at 500 ppm [8]: 80 to 100%
- mortality at 500 ppm [9]: < 50%

SMILES: CC1(c2ncc(C(C(=O)OCc3ccc(F)c(Oc4ccccc4)c3)C(C)(C)C)cn2)CC1 (racemic) [Compound 204, 4-fluoro-3-phenoxybenzyl (RS)-2-[2-(1-methylcyclopropyl)pyrimidin-5-yl]-3,3-dimethylbutanoate]
- mortality at 500 ppm [1]: < 50%
- mortality at 500 ppm [2]: 80 to 100%
- mortality at 500 ppm [3]: 50 to 79%
- mortality at 500 ppm [4]: 80 to 100%
- mortality at 500 ppm (Myzus persicae (aphids)): 80 to 100%
- mortality at 500 ppm [5]: 80 to 100%
- mortality at 500 ppm [6]: 80 to 100%
- pest or weed control at 500 ppm [7]: 80 to 100%
- mortality at 500 ppm [8]: 80 to 100%
- mortality at 500 ppm [9]: < 50%

SMILES: CCC(C)(C)c1ncc([C@H](C(=O)O[C@H](C)c2cccc(Oc3ccccc3)n2)C(C)(C)C)cn1 (racemic) [Compound 57, (RS)-1-(6-phenoxypyrid-2-yl)ethyl (RS)-2-[2-(1,1-dimethylpropyl)pyrimidin-5-yl]-3,3dimethylbutanoate]
- mortality at 500 ppm [1]: < 50%
- mortality at 500 ppm [2]: 80 to 100%
- mortality at 500 ppm [3]: < 50%
- mortality at 500 ppm [4]: 80 to 100%
- mortality at 500 ppm (Myzus persicae (aphids)): 80 to 100%
- mortality at 500 ppm [5]: 80 to 100%
- mortality at 500 ppm [6]: 80 to 100%
- pest or weed control at 500 ppm [7]: 80 to 100%
- mortality at 500 ppm [8]: 80 to 100%
- mortality at 500 ppm [9]: < 50%
